Test [1] relates to AsPC-1 cells containing homozygous KRAS-G12D activating mutation. Kind of test: Cellular phospho-ERK assay (Examples 1a-106). The test is classed as cell-based. The settings on record: Homo sapiens, ASPC1, 2 h, read-out: IC50 (nM) pERK (Cell). The text has this:
5% CO? overnight. […] Assay plates were read on a EnVision Multimode Plate Reader (PerkinElmer) and the ratio of p-Erk vs total Erk in each well was used as the final readout.

The target of test [2] is KRAS protein containing G12D mutation (Homo sapiens (Human), UniProt P01116, G12D). Kind of test: SOS-catalyzed nucleotide exchange assay (GNE), TR-FRET. The test is classed as biochemical. The settings on record: biotinylated KRAS G12D, SOS and GTP, 60-minute incubation. The method, then: Compounds are added to this complex and then after a 60-minute incubation time the mixture is treated with SOS and unlabeled GTP. Small molecule inhibitors stabilize the Bodipy-GDP complex whereas the untreated protein rapidly exchanges Bodipy-GDP for unlabeled GTP resulting in reduced TR-FRET signal.
KRAS protein containing G12D mutation, sequence (P01116 other isoform, or with tags, fused parts or gaps G12D (already in the parent)): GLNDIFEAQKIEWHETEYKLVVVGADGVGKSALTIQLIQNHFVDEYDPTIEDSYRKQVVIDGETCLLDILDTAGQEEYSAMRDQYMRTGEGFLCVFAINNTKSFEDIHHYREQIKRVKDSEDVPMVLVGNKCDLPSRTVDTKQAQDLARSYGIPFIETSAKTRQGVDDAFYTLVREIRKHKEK
This solution is referred to as biotinylated KRAS G12D stock solution.
(Time-resolved FRET reads energy transfer from a long-lived donor to a nearby acceptor.)

The mark [3] stands for this setting: AsPC-1 cells, 2 hours, ratio of p-Erk vs total Erk.

Like-named read-outs stand apart in the source and are kept apart here.

IC50 data for 20 compounds are collected here from patent US20240239788A1, “SMALL MOLECULE INHIBITORS OF KRAS G12D MUTANT” (Merck Sharp & Dohme LLC, priority 2021, published 2024).

The IC50 is the point on the concentration scale where inhibition reaches its midpoint.

As for `CN(C)CC1(COc2nc(N3CC4CC(C)(O)C(C3)N4)c3cc(F)c(-c4cc(O)cc5ccccc45)c(F)c3n2)CC1` (stereo not shown) [Example 27, 3-(2-((1-((dimethylamino)meth-yl)cyclopro-pyl)methoxy)-6,8-difluoro-7-(3-hydroxynaphthalen-1-yl)quinazolin-4-yl)-6-methyl-3,8-diazabicyclo [3.2.1]octan-6-ol], the IC50 came to 22500 nM in test [1] (setting [3]) and 496 nM in test [2].

Consider `CN(C)CC1(COc2nc(N3CC4CC(C#N)C(C3)N4)c3cc(F)c(-c4cc(O)cc5ccccc45)c(F)c3n2)CC1` (stereo not shown) [Example 28, 3-(2-((1-((dimethylamino)meth-yl)cyclopro-pyl)methoxy)-6,8-difluoro-7-(3-hydroxynaphthalen-1-yl)quinazolin-4-yl)-3,8-diazabicyclo[3.2.1]oc-tane-6-carbontrile], for which the IC50 in test [1] (setting [3]) was 50800 nM; in test [2] it was 7450 nM.

Turning to `CC1CC2CN(c3nc(OCC4(CN(C)C)CC4)nc4c(F)c(-c5cc(O)cc6ccccc56)c(F)cc34)CC1N2` (stereo not shown) [Example 29, 4-(2-((1-((dimethyl-amino)methyl)cyclopro-pyl)methoxy)-6,8-difluoro-4-(6-methyl-3,8-diazabicyclo[3.2.1]oc-tan-3-yl)quinazolin-7-yl)naphthalen-2-ol], the IC50 was found to be 11600 nM in test [1] (setting [3]) and 705 nM in test [2].

Consider `CN(C)CC1(COc2nc(N3CC4NC(C3)C3CC43)c3cc(Cl)c(-c4cc(O)cc5ccccc45)c(F)c3n2)CC1` (stereo not shown) [Example 30, 4-(6-chloro-2-((1-((dimethylamino)meth-yl)cyclopropyl)meth-oxy)-8-fluoro-4-(7,9-diazatri-cyclo[3.3.1.02,4]nonan-7-yl)quinazolin-7-yl)naphthalen-2-ol], for which the IC50 in test [1] (setting [3]) was found to be 30100 nM; in test [2], 7610 nM.

Consider `COCC12CCC(CN(c3nc(OCC4(CN(C)C)CC4)nc4c(F)c(-c5cc(O)cc6ccccc56)c(Cl)cc34)C1)N2` (stereo not shown) [Example 37, 4-(6-chloro-2-((1-((dimethylamino)meth-yl)cyclopro-pyl)methoxy)-8-fluoro-4-(1-(methoxy-methyl)-3,8-diazabicyclo[3.2.1]oc-tan-3-yl)quinazolin-7-yl)naphthalen-2-ol], for which the results for the IC50 in test [1] (setting [3]) and in test [2] were 16700 nM and 571 nM, respectively.

For `CC[C@@H]1N[C@H]2CC[C@@H]1N(c1nc(OCC3(CN(C)C)CC3)nc3c(F)c(-c4cc(O)cc5ccccc45)c(Cl)cc13)C2` [Example 40, 4-(6-chloro-2-((1-((dimethylamino)methyl)cyclopropyl)methoxy)-4-((1S,4S,6S)-6-ethyl-2,5-diazabicyclo[2.2.2]octan-2-yl)-8-fluoroquinazolin-7-yl)naphthalen-2-ol], the IC50 in test [1] (setting [3]) stood at 22000 nM; in test [2], 689 nM.

For the compound `CN(C)CC1(COc2nc(N3C[C@H]4N[C@@](C)(C[C@@H]4O)C3)c3cc(Cl)c(-c4cc(O)cc5ccccc45)c(F)c3n2)CC1` [Example 44, (1S,5R,6S)-3-(6-chloro-2-((1-((dimethylamino)methyl)cyclopropyl)methoxy)-8-fluoro-7-(3-hydroxynaphthalen-1-yl)quinazolin-4-yl)-1-methyl-3,8-diazabicyclo [3.2.1]octan-6-ol], the figures for the IC50 in test [1] (setting [3]) and in test [2] were 13900 nM and 1160 nM, respectively.

Turning to `CN(C)CC1(COc2nc(N3CC4CCC(C3)N4)c3cc(Cl)c(-c4c5ccccc5cc5[nH]c(=O)[nH]c45)c(F)c3n2)CC1` [Example 46, 4-(4-(3,8-diazabicyclo[3.2.1]octan-3-yl)-6-chloro-2-((1-((dimethylamino)methyl)cyclopropyl)methoxy)-8-fluoroquinazolin-7-yl)-1,3-dihydro-2H-naphtho[2,3-d]imidazol-2-one], the IC50 in test [1] (setting [3]) came to 50800 nM; in test [2], 9340 nM.

Consider `CN(C)CC1(COc2nc(N3CC4CCC(C3)N4)c3cc(Cl)c(-c4cc(O)ccc4C45CC(C4)C5)c(F)c3n2)CC1` [Example 47, 3-(4-(3,8-diazabicyclo[3.2.1]octan-3-yl)-6-chloro-2-((1-((dimethylamino)methyl)cyclopropyl)methoxy)-8-fluoroquinazolin-7-yl)-4-(bicyclo[1.1.1]pentan-1-yl)phenol], for which the IC50 came out at 5790 nM in test [1] (setting [3]) and 551 nM in test [2].

Turning to `Oc1ccc(SC(F)(F)F)c(-c2c(F)cc3c(N4CC5CCC(C4)N5)nc(OCC4(CN5CCOCC5)CC4)nc3c2F)c1` [Example 48, 3-(4-(3,8-diazabicyclo[3.2.1]octan-3-yl)-6,8-difluoro-2-((1-(morpholinomethyl)cyclopropyl)methoxy)quinazolin-7-yl)-4-((trifluoromethyl)thio)phenol], the IC50 in test [1] (setting [3]) came to 6120 nM; in test [2], 529 nM.

Turning to `Fc1cc2c(N3CC4CCC(C3)N4)nc(OCC3(CN4CCOCC4)CC3)nc2c(F)c1-c1cccc2sncc12` [Example 50, 4-((1-(((7-(benzo[d]isothiazol-4-yl)-4-(3,8-diazabicyclo[3.2.1]octan-3-yl)-6,8-difluoroquinazolin-2-yl)oxy)methyl)cyclopropyl)methyl) morpholine], the IC50 is 20300 nM in test [1] (setting [3]) and 5180 nM in test [2].

With `CNc1nc2c(-c3c(Cl)cc4c(N5CC6CCC(C5)N6)nc(OCC5(CN6CCOCC6)CC5)nc4c3F)ccc(F)c2s1` [Example 51, 4-(4-(3,8-diazabicyclo[3.2.1]octan-3-yl)-6-chloro-8-fluoro-2-((1-(morpholinomethyl)cyclopropyl)methoxy)quinazolin-7-yl)-7-fluoro-N-methylbenzo[d]thiazol-2-amine], the IC50 in test [1] (setting [3]) came to 11200 nM; in test [2], 3930 nM.

With `Fc1c(-c2ccc(F)c3scnc23)c(Cl)cc2c(N3CC4CCC(C3)N4)nc(OCC3(CN4CCOCC4)CC3)nc12` [Example 53, 4-((1-(((4-(3,8-diazabicyclo[3.2.1]octan-3-yl)-6-chloro-8-fluoro-7-(7-fluorobenzo[d]thiazol-4-yl)quinazolin-2-yl)oxy)methyl)cyclopropyl)methyl) morpholine], the values for the IC50 in test [1] (setting [3]) and in test [2] were 11000 nM and 2780 nM, respectively.

`Nc1nc2c(F)ccc(-c3c(Cl)cc4c(N5CC6CCC(C5)N6)nc(OCC5(CN6CCOCC6)CC5)nc4c3F)c2s1` [Example 54, 7-(4-(3,8-diazabicyclo[3.2.1]octan-3-yl)-6-chloro-8-fluoro-2-((1-(morpholinomethyl)cyclopropyl)methoxy)quinazolin-7-yl)-4-fluorobenzo[d]thiazol-2-amine]: the IC50 in test [1] (setting [3]) came to 14100 nM; in test [2] it was 2650 nM.

As to `CN(C)CC1(COc2nc(N3CC4CCC(C3)N4)c3cc(Cl)c(-c4c(Cl)c(F)cc5[nH]ncc45)c(F)c3n2)CC1` [Example 55, 1-(1-(((4-(3,8-diazabicyclo[3.2.1]octan-3-yl)-6-chloro-7-(5-chloro-6-fluoro-1H-indazol-4-yl)-8-fluoroquinazolin-2-yl)oxy)methyl)cyclopropyl)-N,N-dimethylmethanamine], the IC50 in test [1] (setting [3]) came to 7060 nM; in test [2], 969 nM.

As to `CN(C)CC1(COc2nc(N3CC4CCC(C3)N4)c3cc(Cl)c(-c4cc(C(F)(F)F)cc5[nH]ncc45)c(F)c3n2)CC1` [Example 56, 1-(1-(((4-(3,8-diazabicyclo[3.2.1]octan-3-yl)-6-chloro-8-fluoro-7-(6-(trifluoromethyl)-1H-indazol-4-yl)quinazolin-2-yl)oxy)methyl)cyclopropyl)-N,N-dimethylmethanamine], the IC50 in test [1] (setting [3]) was 6920 nM; in test [2], 4030 nM.

With `Nc1nc2c(-c3c(Cl)cc4c(N5CC6CCC(C5)N6)nc(OCC5(CN6CCOCC6)CC5)nc4c3F)cccc2o1` [Example 59, 4-(4-(3,8-diazabicyclo[3.2.1]octan-3-yl)-6-chloro-8-fluoro-2-((1-(morpholinomethyl)cyclopropyl)methoxy)quinazolin-7-yl)benzo[d]oxazol-2-amine], the IC50 in test [1] (setting [3]) is 2210 nM; in test [2] it was 20.1 nM.

Consider `CN(C)CC1(COc2nc(N3C[C@H]4CC[C@@H](C3)N4)c3cc(Cl)c(-c4cccc5cccc(C#N)c45)c(F)c3n2)CC1` [Example 60, 8-(4-((1R,5S)-3,8-diazabicyclo[3.2.1]octan-3-yl)-6-chloro-2-((1-((dimethylamino)methyl)cyclopropyl)methoxy)-8-fluoroquinazolin-7-yl)-1-naphthonitrile], for which the IC50 in test [1] was found to be 8760 nM; in test [2], 1590 nM.

With `CN(C)CC1(COc2nc(N3C[C@H]4CC[C@@H](C3)N4)c3cc(Cl)c(-c4c(C(F)(F)F)ccc5[nH]ncc45)c(F)c3n2)CC1` [Example 63, 1-(1-(((4-((1R,5S)-3,8-diazabicyclo [3.2.1]octan-3-yl)-6-chloro-8-fluoro-7-(5-(trifluoromethyl)-1H-indazol-4-yl)quinazolin-2-yl)oxy)methyl)cyclopropyl)-N,N-dimethylmethanamine], the IC50 in test [1] (setting [3]) came out at 26800 nM; in test [2] it was 1590 nM.

Take `Cc1cc2[nH]ncc2c(-c2c(F)cc3c(N4C[C@H]5CC[C@@H](C4)N5)nc(OCC4(CN(C)C)CC4(F)F)nc3c2F)c1Cl` (stereo partly drawn) [Example 64, 1-(1-(((4-((1R,5S)-3,8-diazabicyclo[3.2.1]octan-3-yl)-7-(5-chloro-6-methyl-1H-indazol-4-yl)-6,8-difluoroquinazolin-2-yl)oxy)methyl)-2,2-difluorocyclopropyl)-N,N-dimethylmethanamine]: the values for the IC50 in test [1] (setting [3]) and in test [2] were 4380 nM and 146 nM, respectively.
